Key:
HCV NS3-NS4A protease = target: T1, HCV NS3-NS4A protease (Hepatitis C virus genotype 1b, UniProt P26663); test: HCV Protease Assay (SensoLyte 620 HCV Protease Assay kit); assay type: biochemical; settings: 1.2 nM HCV NS3-NS4A protease, 60 min at room temperature, 5% DMSO
T1 construct: made in house
Description: General procedure: Measurement of the inhibitory effect of compounds on HCV protease activity was performed with the SensoLyte™ 620 HCV Protease Assay kit from AnaSpec, Inc. (San Jose, Calif.) under conditions described by the supplier using 1.2 nM HCV NS3-NS4A protease, which was obtained according to Taremi et al. (Protein Science, 1998, 7, 2143-2149). The compounds were tested at a variety of concentrations in assay buffer containing a final DMSO concentration of 5%. Reactions were allowed to proceed for 60 min at room temperature and fluorescence measurements were recorded with a Tecan Infinity Spectrofluorimeter. The IC50 values were determined from the percent inhibition versus concentration data using a sigmoidal non-linear regression analysis based on four parameters with Tecan Magellan software.

[1] = test system: Huh-7 cells containing HCV Con1 subgenomic replicon (GS4.1 cells); test: HCV Replicon Assay (NS4A ELISA); assay type: cell-based; settings: Hepatitis C virus, Huh-7, 72 hr, NS4A protein by ELISA
Description: General procedure: Huh-7 cells containing HCV Con1 subgenomic replicon (GS4.1 cells) were grown in Dulbecco's Modified Eagle Medium (DMEM) supplemented with 10% fetal bovine serum (FBS), 2 mM L-glutamine, 110 mg/L sodium pyruvate, 1× non-essential amino acids, 100 U/mL penicillin-streptomycin, and 0.5 mg/mL G418 (Invitrogen). For dose-response testing, the cells were seeded in 96-well plates at 7.5×10^3 cells/well in a volume of 50 μL, and incubated at 37° C./5% CO2. Three hours after plating, 50 μL of ten 2-fold serial dilutions of compounds (highest concentration, 75 μM) were added, and cell cultures were incubated at 37° C./5% CO2 in the presence of 0.5% DMSO. Alternatively, compounds were tested at a single concentration of 15 μM. In all cases, Huh-7 cells lacking the HCV replicon served as negative control. The cells were incubated in the presence of compounds for 72 hr after which they were monitored for expression of the NS4A protein by enzyme-linked immunosorbent assay (ELISA). For this, the plates were then fixed for 1 min with acetone/methanol (1:1, v/v), washed twice with phosphate-buffered saline (PBS), 0.1% Tween 20, blocked for 1 hr at room temperature with TNE buffer containing 10% FBS and then incubated for 2 hr at 37° C. with the anti-NS4A mouse monoclonal antibody A-236 (ViroGen) diluted in the same buffer. After washing three times with PBS, 0.1% Tween 20, the cells were incubated 1 hr at 37° C. with anti-mouse immunoglobulin G-peroxidase conjugate in TNE, 10% FBS. After washing as described above, the reaction was developed with O-phenylenediamine (Zymed). The reaction was stopped after 30 min with 2 NH2SO4, and absorbance was read at 492 nm using Sunrise Tecan spectrophotometer. EC50 values were determined from the % inhibition versus concentration data using a sigmoidal non-linear regression analysis based on four parameters with Tecan Magellan software. When screening at a single concentration, the results were expressed as % inhibition at 15 μM.

[2] = Cytotoxicity evaluation (Cell Titer 96 AQueous One Solution Cell Proliferation Assay); assay type: cell-based; settings: human; GS4.1 cells, cellular viability
Description: For cytotoxicity evaluation, GS4.1 cells were treated with compounds as described above and cellular viability was monitored using the Cell Titer 96 AQueous One Solution Cell Proliferation Assay (Promega). CC50 values were determined from the % cytotoxicity versus concentration data with Tecan Magellan software as described above.

T1 sequence (P26663 1027-1208): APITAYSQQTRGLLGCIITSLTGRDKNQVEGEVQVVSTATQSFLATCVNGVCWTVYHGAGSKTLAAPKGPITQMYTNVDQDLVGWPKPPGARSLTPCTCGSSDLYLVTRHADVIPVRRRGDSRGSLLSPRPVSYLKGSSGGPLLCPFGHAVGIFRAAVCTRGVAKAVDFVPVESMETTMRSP

Structure (SMILES) | IC50 (HCV NS3-NS4A protease) [nM] | EC50 [1] [nM] | CC50 [2] [nM]
COc1cc(C)c2nc(-c3nc(C(C)C)cs3)cc(O[C@H]3C[C@H]4C(=O)N(C)CCCC/C=C\[C@@H]5C[C@@]5(C(=O)NS(=O)(=O)C5CC5)NC(=O)N4C3)c2c1 [Compound 62f, (Z)-(4R,6S,15S,17S)-[17-[6-methoxy-8-methyl-2-(4-isopropylthiazol-2-yl)quinolin-4-yloxy]-13-N-methyl-2,14-dioxo-1,3,13-triazatricyclo[13.3.0.0]octadec-7-en-4-yl]carbonyl(cyclopropyl)sulfonamide] | < 1000 | < 1000 | > 75000
COc1ccc2c(O[C@H]3C[C@H]4C(=O)N(C)CCCC/C=C\[C@@H]5C[C@@]5(C(=O)NS(=O)(=O)C5(C)CC5)NC(=O)N4C3)cc(-c3csc(C(F)(F)F)n3)nc2c1C [Compound O4, (Z)-(4R,6S,15S,17S)-[17-[7-methoxy-8-methyl-2-(2-trifluoromethylthiazol-4-yl)quinolin-4-yloxy]-13-N-methyl-2,14-dioxo-1,3,13-triazatricyclo-[13.3.0.0]octadec-7-en-4-yl]carbonyl-(1-methylcyclopropyl)sulfonamide] | < 1000 | < 1000 | > 75000
C#Cc1csc(-c2cc(O[C@H]3C[C@H]4C(=O)N(C)CCCC/C=C\[C@@H]5C[C@@]5(C(=O)NS(=O)(=O)C5(C)CC5)NC(=O)N4C3)c3ccc(OC)c(Cl)c3n2)n1 [Compound G2, (Z)-(4R,6S,15S,17S)-[17-[8-chloro-7-methoxy-2-(4-ethynylthiazol-2-yl)quinolin-4-yloxy]-13-N-methyl-2,14-dioxo-1,3,13-triazatricyclo-[13.3.0.0]octadec-7-en-4-yl]carbonyl(1-methyl-cyclopropyl)sulfonamide] | < 1000 | < 1000 | 10000 to 75000
C#CC1(S(=O)(=O)NC(=O)[C@@]23C[C@H]2/C=C\CCCCN(C)C(=O)[C@@H]2C[C@H](Oc4cc(-c5nc(C(C)C)cs5)nc5c(C)c(OC)ccc45)CN2C(=O)N3)CC1 [Compound 83b, (Z)-(4R,6S,15S,17S)-[17-[7-methoxy-8-methyl-2-(4-isopropylthiazol-2-yl)quinolin-4-yloxy]-13-N-methyl-2,14-dioxo-1,3,13-triazatricyclo[13.3.0.0]octadec-7-en-4-yl]carbonyl(1-ethynylcyclopropyl)sulfonamide] | < 1000 | < 1000 | > 75000
COc1ccc2c(O[C@H]3C[C@H]4C(=O)N(C)CCCC/C=C\[C@@H]5C[C@@]5(C(=O)NS(=O)(=O)C5CC5)NC(=O)N4C3)cc(-n3ccc(C(F)(F)F)n3)nc2c1C [Compound 91g, (Z)-(4R,6S,15S,17S)-[17-[7-methoxy-8-methyl-2-(3-trifluoromethyl-1H-pyrazol-1-yl)quinolin-4-yloxy]-13-N-methyl-2,14-dioxo-1,3,13-triazatricyclo[13.3.0.0]octadec-7-ene-4-yl]carbonyl(cyclopropyl)sulfonamide] | < 1000 | < 1000 | > 75000
COc1ccc2c(O[C@H]3C[C@H]4C(=O)N(C)CCCC/C=C\[C@@H]5C[C@@]5(C(=O)NS(=O)(=O)C5(C)CC5)NC(=O)N4C3)cc(-c3nc(C(F)(F)F)cs3)nc2c1Cl [Compound 68d, (Z)-(4R,6S,15S,17S)-[17-[8-chloro-7-methoxy-2-(4-trifluoromethythiazol-2-yl)quinolin-4-yloxy]-13-N-methyl-2,14-dioxo-1,3,13-triazatricyclo[13.3.0.0]octadec-7-en-4-yl]carbonyl(1-methylcyclopropyl)sulfonamide] | < 1000 | < 1000 | > 75000
COc1ccc2c(O[C@H]3C[C@H]4C(=O)N(C)CCCC/C=C\[C@@H]5C[C@@]5(C(=O)NS(=O)(=O)C5CC5)NC(=O)N4C3)cc(-c3csc(C(F)(F)F)n3)nc2c1C [Compound O3, (Z)-(4R,6S,15S,17S)-[17-[7-methoxy-8-methyl-2-(2-trifluoromethylthiazol-4-yl)quinolin-4-yloxy]-13-N-methyl-2,14-dioxo-1,3,13-triazatricyclo-[13.3.0.0]octadec-7-en-4-yl]carbonyl-(cyclopropyl)sulfonamide] | < 1000 | < 1000 | 10000 to 75000

— patent US8003659B2, “Macrocyclic serine protease inhibitors” (Indenix Pharmaceuticals, Inc., priority 2008, dated 2011)
